Test results reported in ChEMBL document CHEMBL1144482, “Design, synthesis, biochemical evaluation and antimycobacterial action of phosphonate inhibitors of antigen 85C, a crucial enzyme involved in biosynthesis of the mycobacterial cell wall” (Eur J Med Chem, 2007).
≈ marks a conversion by molar mass, not a printed value. Calls of active or inactive are those of the source. The rule behind the calls is not given here.

Columns and labels:
[1] = biological target: Diacylglycerol acyltransferase/mycolyltransferase Ag85C (Mycobacterium tuberculosis, UniProt P9WQN9); assay: Inhibition of Mycobacterium tuberculosis recombinant antigen 85C mycolyltransferase
Diacylglycerol acyltransferase/mycolyltransferase Ag85C, sequence (P9WQN9 whole entry): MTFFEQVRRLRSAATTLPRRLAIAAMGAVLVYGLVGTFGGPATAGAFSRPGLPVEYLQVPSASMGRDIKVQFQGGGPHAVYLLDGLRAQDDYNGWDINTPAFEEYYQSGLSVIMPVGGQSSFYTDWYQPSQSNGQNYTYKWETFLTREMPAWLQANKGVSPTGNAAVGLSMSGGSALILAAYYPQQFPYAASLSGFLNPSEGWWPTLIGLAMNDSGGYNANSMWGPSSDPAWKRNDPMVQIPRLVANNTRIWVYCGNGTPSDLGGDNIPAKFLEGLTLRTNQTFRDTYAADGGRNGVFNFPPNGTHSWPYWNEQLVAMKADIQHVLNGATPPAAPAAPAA

Mycobacterium avium = assay: Growth inhibition of Mycobacterium avium 2447; format: functional

| SMILES | IC50 [1] | MIC (Mycobacterium avium) | Activity (Mycobacterium avium) |
| --- | --- | --- | --- |
| CCCCCCCCCP(=O)(OCC)OCc1ccccc1Oc1ccccc1 (stereo not drawn) | 14.8 µM | 188 µg/mL (≈ 450 µM) | – |
| CCCCCCCCCP(=O)(OCC)OCCN1C(=O)c2ccccc2C1=O (stereo not drawn) | – | – | inactive |
| CCCCCCCCCP(=O)(OCC)OCN1C(=O)c2ccccc2C1=O (stereo not drawn) | – | 84.5 µg/mL (≈ 214 µM) | – |
| CCCCP(=O)(OCC)OCc1ccccc1Oc1ccccc1 (stereo not drawn) | 2 µM | 249 µg/mL (≈ 714 µM) | – |
| CCCCCCP(=O)(OCC)OCc1cc(OC)c(OC)c(OC)c1 (stereo not drawn) | 102 µM | – | – |
| CCCCCCCCCCCCCCP(=O)(OCC)OCc1ccccc1Oc1ccccc1 (stereo not drawn) | 862 µM | – | – |
| CCCCP(=O)(OCC)OCN1C(=O)c2ccccc2C1=O (stereo not drawn) | – | – | inactive |
| CCCCCCCP(=O)(OCC)OCc1ccccc1Oc1ccccc1 (stereo not drawn) | 21 µM | 319 µg/mL (≈ 817 µM) | – |
| CCOP(=O)(O)CCc1ccccc1 | 225 µM | – | – |
| CC[C@H]1OC(=O)[C@H](C)[C@@H](O[C@H]2C[C@@](C)(OC)[C@@H](O)[C@H](C)O2)[C@H](C)[C@@H](O[C@@H]2O[C@H](C)C[C@H](N(C)C)[C@H]2O)[C@](C)(OC)C[C@@H](C)C(=O)[C@H](C)[C@@H](O)[C@]1(C)O [CLARITHROMYCIN] | – | 0.2 µg/mL (≈ 0.267 µM) | – |
| CCCCCCP(=O)(OCC)OCc1ccccc1Oc1ccccc1 (stereo not drawn) | 42.6 µM | 260 µg/mL (≈ 690 µM) | – |
| CCCCP(=O)(OCC)OCCN1C(=O)c2ccccc2C1=O (stereo not drawn) | – | 406 µg/mL (≈ 1200 µM) | – |
| CCOP(=O)(O)CCCCN1C(=O)c2ccccc2C1=O | 110 µM | – | – |
| CCCCCCCP(=O)(OCC)OCN1C(=O)c2ccccc2C1=O (stereo not drawn) | – | – | inactive |
